From US10231954B2, “Neurodegenerative therapies” (LYTIX BIOPHARMA AS, priority 2014, dated 2019)

Experiments:
Assay type in all cases: biochemical
PKCa = PKCa (Homo sapiens, UniProt P17252); assay: Kinase profiling PKCa; settings: 100 micromolar inhibitor concentration, 100 is no change
Excerpt: (§1) Any value less that 25 is considered to be highly significant inhibition.

MKK2 = MKK2 (Homo sapiens, UniProt P36507); assay: Kinase profiling MKK2; settings: 100 micromolar inhibitor concentration, 100 is no change
Excerpt: as §1

p38b MAPK = p38b MAPK (Homo sapiens, UniProt Q15759); assay: Kinase profiling p38b MAPK; settings: 100 micromolar inhibitor concentration, 100 is no change
p38b MAPK, sequence (Q15759 whole entry): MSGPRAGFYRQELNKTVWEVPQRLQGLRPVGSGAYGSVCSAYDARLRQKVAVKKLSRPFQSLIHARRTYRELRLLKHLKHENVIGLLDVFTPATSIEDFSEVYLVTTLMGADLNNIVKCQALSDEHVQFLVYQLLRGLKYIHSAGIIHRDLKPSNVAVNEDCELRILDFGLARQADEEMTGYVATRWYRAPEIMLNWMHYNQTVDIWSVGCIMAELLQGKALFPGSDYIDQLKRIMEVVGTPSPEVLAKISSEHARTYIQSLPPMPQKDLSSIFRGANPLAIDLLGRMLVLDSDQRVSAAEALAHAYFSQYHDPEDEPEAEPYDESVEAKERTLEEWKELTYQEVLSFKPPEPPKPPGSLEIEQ
Excerpt: as §1

PAK4 = PAK4 (Homo sapiens, UniProt O96013); assay: Kinase profiling PAK4; settings: 100 micromolar inhibitor concentration, 100 is no change
Excerpt: as §1

CK2 = assay: Kinase profiling CK2; settings: 100 micromolar inhibitor concentration; 100 is no change
Excerpt: as §1

PKCγ = PKCγ (Homo sapiens, UniProt P05129); assay: Kinase profiling PKCγ; settings: 100 micromolar inhibitor concentration, 100 is no change
Excerpt: as §1

TBK1 = molecular target: T1, TBK1 (Homo sapiens, UniProt Q9UHD2); assay: Kinase profiling TBK1; settings: 100 micromolar inhibitor concentration, 100 is no change
T1 sequence (Q9UHD2 1-729): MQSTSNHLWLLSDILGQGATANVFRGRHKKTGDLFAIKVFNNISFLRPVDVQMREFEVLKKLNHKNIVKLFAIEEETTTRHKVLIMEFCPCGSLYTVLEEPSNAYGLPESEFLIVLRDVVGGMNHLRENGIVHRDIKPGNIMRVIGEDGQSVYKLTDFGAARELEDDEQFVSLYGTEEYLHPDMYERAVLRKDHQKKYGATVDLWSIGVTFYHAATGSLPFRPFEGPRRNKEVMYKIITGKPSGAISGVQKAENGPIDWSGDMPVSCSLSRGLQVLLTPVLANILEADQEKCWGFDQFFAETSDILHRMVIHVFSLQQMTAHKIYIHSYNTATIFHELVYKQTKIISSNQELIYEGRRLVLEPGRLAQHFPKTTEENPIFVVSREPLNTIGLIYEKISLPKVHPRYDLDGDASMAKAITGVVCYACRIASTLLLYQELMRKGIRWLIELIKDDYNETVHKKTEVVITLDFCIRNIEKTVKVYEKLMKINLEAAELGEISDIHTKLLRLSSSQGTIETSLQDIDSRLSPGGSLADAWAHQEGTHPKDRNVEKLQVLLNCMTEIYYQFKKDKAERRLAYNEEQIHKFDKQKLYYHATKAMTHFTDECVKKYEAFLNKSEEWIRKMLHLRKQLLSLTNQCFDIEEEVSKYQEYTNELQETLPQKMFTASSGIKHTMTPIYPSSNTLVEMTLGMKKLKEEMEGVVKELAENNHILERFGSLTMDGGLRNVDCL
Excerpt: as §1

EPH-A2 = EPH-A2 (Homo sapiens, UniProt P29317); assay: Kinase profiling EPH-A2; settings: 100 micromolar inhibitor concentration, 100 is no change
EPH-A2, sequence (P29317 24-976, species assumed): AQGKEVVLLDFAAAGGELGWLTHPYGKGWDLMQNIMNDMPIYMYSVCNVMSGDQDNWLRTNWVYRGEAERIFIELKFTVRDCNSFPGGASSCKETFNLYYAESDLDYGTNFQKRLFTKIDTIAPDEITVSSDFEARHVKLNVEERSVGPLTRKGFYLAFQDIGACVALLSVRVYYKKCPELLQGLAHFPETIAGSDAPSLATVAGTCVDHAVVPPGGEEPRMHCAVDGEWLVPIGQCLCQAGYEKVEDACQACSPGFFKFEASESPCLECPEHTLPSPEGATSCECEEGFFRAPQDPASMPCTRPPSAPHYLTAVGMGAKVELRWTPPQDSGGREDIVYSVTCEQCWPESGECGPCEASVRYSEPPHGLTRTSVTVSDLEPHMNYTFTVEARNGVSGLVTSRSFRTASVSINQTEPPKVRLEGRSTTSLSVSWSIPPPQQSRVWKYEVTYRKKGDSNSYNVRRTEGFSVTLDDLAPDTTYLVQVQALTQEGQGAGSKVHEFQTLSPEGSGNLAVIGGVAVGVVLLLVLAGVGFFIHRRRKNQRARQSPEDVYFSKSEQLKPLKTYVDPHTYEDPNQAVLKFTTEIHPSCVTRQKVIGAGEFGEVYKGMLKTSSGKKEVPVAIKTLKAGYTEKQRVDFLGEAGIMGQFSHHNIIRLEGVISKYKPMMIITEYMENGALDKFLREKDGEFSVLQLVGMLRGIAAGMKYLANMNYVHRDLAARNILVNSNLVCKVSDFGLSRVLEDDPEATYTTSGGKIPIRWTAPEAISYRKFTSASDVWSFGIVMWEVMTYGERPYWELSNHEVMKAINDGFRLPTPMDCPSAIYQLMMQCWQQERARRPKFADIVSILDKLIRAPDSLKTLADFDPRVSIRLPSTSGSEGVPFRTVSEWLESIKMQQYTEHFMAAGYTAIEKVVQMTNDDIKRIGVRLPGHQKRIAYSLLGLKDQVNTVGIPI
Excerpt: as §1

p38g MAPK = molecular target: T2, p38g MAPK (Homo sapiens, UniProt P53778); assay: Kinase profiling p38g MAPK; settings: 100 micromolar inhibitor concentration, 100 is no change
T2 sequence (P53778 1-367): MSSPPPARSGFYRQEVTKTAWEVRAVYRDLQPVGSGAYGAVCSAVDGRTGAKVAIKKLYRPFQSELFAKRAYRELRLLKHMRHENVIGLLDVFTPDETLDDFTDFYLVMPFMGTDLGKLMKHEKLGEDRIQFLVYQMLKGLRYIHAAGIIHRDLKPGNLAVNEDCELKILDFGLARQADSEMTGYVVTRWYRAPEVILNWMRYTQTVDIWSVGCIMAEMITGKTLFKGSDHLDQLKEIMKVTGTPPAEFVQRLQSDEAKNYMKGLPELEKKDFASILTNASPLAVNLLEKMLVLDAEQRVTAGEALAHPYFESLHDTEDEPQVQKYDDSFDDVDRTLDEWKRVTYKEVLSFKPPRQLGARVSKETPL
Excerpt: as §1

PRK2 = PRK2 (Homo sapiens, UniProt Q16513); assay: Kinase profiling PRK2; settings: 100 micromolar inhibitor concentration, 100 is no change
PRK2, sequence (Q16513 whole entry, species assumed): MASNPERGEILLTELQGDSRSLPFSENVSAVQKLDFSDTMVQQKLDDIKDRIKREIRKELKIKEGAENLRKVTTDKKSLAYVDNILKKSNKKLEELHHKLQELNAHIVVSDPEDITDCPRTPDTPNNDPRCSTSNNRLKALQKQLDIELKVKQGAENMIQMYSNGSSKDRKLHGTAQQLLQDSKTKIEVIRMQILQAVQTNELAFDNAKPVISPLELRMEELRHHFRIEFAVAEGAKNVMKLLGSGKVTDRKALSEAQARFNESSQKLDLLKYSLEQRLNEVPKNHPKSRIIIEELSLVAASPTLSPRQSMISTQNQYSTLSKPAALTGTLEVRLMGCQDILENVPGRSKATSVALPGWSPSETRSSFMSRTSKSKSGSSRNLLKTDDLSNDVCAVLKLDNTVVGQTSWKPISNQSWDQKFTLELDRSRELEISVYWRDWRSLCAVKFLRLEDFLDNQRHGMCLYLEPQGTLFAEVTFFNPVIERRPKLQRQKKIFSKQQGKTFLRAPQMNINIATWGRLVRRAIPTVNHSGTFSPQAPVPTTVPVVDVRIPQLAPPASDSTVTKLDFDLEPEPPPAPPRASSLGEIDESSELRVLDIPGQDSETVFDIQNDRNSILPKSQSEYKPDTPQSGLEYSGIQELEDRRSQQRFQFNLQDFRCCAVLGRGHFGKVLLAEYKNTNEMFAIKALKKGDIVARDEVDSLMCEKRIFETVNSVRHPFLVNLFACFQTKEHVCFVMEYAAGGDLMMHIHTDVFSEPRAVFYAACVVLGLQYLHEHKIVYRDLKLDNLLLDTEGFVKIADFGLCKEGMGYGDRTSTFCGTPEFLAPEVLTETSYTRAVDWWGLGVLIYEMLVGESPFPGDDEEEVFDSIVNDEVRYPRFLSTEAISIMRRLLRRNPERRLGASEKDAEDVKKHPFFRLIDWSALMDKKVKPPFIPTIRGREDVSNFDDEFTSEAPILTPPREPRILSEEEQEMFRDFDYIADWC
Excerpt: as §1

BTK = BTK (Homo sapiens, UniProt Q06187); assay: Kinase profiling BTK; settings: 100 micromolar inhibitor concentration, 100 is no change
Excerpt: as §1

CAMKKb = CAMKKb (Homo sapiens, UniProt Q96RR4); assay: Kinase profiling CAMKKb; settings: 100 micromolar inhibitor concentration, 100 is no change
Excerpt: as §1

SRPK1 = SRPK1 (Homo sapiens, UniProt Q96SB4); assay: Kinase profiling SRPK1; settings: 100 micromolar inhibitor concentration, 100 is no change
SRPK1, sequence (Q96SB4 whole entry, species assumed): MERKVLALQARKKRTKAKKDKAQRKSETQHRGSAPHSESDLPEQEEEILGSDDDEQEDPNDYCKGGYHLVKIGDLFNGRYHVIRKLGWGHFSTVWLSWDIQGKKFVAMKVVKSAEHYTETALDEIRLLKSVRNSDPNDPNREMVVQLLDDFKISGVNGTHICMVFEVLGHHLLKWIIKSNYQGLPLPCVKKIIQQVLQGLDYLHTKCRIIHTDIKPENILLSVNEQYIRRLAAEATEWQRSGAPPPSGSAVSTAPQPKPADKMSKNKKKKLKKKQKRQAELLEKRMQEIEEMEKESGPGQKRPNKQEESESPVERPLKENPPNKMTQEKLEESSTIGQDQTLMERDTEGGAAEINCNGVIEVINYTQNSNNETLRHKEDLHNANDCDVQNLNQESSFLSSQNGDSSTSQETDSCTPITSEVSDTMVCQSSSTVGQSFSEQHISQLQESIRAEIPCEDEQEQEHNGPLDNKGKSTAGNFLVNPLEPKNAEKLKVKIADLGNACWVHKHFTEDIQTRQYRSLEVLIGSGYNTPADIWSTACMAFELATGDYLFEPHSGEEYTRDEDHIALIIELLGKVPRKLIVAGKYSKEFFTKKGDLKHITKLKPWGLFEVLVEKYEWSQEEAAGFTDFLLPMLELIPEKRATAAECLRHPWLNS
Excerpt: as §1

MKK1 = MKK1 (Homo sapiens, UniProt Q02750); assay: Kinase profiling MKK1; settings: 100 micromolar inhibitor concentration, 100 is no change
MKK1, sequence (Q02750 whole entry, species assumed): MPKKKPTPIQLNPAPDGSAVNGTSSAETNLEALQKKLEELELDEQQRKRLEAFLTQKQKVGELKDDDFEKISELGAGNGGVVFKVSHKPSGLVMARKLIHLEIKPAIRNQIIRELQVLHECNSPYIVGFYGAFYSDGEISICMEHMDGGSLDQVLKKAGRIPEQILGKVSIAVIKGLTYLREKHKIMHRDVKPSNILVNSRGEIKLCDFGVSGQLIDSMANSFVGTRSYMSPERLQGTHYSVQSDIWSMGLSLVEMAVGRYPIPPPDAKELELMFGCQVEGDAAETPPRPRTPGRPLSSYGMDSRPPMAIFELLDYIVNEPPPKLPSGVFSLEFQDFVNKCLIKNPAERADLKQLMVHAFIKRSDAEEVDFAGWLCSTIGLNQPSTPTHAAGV
Excerpt: as §1

RIPK2 = RIPK2 (Homo sapiens, UniProt O43353); assay: Kinase profiling RIPK2; settings: 100 micromolar inhibitor concentration, 100 is no change
Excerpt: as §1

PKD1 = molecular target: T3, PKD1 (Homo sapiens, UniProt Q15139); assay: Kinase profiling PKD1; settings: 100 micromolar inhibitor concentration, 100 is no change
T3 sequence (Q15139 1-912): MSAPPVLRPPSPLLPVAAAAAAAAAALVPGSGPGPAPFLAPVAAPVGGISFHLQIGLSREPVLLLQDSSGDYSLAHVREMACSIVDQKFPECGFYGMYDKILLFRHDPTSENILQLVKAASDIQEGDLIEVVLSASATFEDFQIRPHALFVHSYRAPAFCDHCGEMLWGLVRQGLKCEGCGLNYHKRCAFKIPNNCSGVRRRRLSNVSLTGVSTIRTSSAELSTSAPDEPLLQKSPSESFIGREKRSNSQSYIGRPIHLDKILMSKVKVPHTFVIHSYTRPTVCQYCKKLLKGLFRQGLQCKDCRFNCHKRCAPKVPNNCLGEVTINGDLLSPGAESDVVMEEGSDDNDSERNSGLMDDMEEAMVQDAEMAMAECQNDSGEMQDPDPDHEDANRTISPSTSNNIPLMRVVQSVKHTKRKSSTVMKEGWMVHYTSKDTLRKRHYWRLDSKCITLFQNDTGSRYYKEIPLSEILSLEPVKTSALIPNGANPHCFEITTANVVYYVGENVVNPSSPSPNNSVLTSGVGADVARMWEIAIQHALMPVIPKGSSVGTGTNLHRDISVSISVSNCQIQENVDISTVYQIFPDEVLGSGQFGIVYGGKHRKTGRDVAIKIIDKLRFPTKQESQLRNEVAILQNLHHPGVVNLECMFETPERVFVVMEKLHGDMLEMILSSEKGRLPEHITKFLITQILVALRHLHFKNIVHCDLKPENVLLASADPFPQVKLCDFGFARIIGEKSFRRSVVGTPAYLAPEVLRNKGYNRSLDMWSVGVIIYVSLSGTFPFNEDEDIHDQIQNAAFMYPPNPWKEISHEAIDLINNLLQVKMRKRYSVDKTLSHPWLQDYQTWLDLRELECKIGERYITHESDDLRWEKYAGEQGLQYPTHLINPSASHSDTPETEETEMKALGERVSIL
Excerpt: as §1

PLK1 = PLK1 (Homo sapiens, UniProt P53350); assay: Kinase profiling PLK1; settings: 100 micromolar inhibitor concentration, 100 is no change
Excerpt: as §1

## CC(=O)Nc1nc2ccccc2s1 [Compound 03-32]
PKCa
  residual kinase activity, PKCa: 104
MKK2
  residual kinase activity, MKK2: 96
p38b MAPK
  residual kinase activity, p38b MAPK: 107
PAK4
  residual kinase activity, PAK4: 75
CK2
  residual kinase activity, CK2: 96
PKCγ
  residual kinase activity, PKCγ: 94
TBK1
  residual kinase activity, TBK1: 88
EPH-A2
  residual kinase activity, EPH-A2: 111
p38g MAPK
  residual kinase activity, p38g MAPK: 109
PRK2
  residual kinase activity, PRK2: 81
BTK
  residual kinase activity, BTK: 100
CAMKKb
  residual kinase activity, CAMKKb: 101
SRPK1
  residual kinase activity, SRPK1: 59
MKK1
  residual kinase activity, MKK1: 81
RIPK2
  residual kinase activity, RIPK2: 70
PKD1
  residual kinase activity, PKD1: 105
PLK1
  residual kinase activity, PLK1: 62

## CC(=O)Nc1nc2cc(F)ccc2s1 [Compound 03-77]
PKCa; read-out: residual kinase activity, PKCa
  remaining activity at 100 µM: 101%
MKK2; read-out: residual kinase activity, MKK2
  remaining activity at 100 µM: 101%
p38b MAPK; read-out: residual kinase activity, p38b MAPK
  remaining activity at 100 µM: 79%
PAK4; read-out: residual kinase activity, PAK4
  remaining activity at 100 µM: 97%
CK2
  residual kinase activity, CK2: 81
PKCγ; read-out: residual kinase activity, PKCγ
  remaining activity at 100 µM: 102%
TBK1; read-out: residual kinase activity, TBK1
  remaining activity at 100 µM: 74%
EPH-A2; read-out: residual kinase activity, EPH-A2
  remaining activity at 100 µM: 106%
p38g MAPK; read-out: residual kinase activity, p38g MAPK
  remaining activity at 100 µM: 77%
PRK2; read-out: residual kinase activity, PRK2
  remaining activity at 100 µM: 74%
BTK; read-out: residual kinase activity, BTK
  remaining activity at 100 µM: 105%
CAMKKb; read-out: residual kinase activity, CAMKKb
  remaining activity at 100 µM: 74%
SRPK1; read-out: residual kinase activity, SRPK1
  remaining activity at 100 µM: 65%
MKK1; read-out: residual kinase activity, MKK1
  remaining activity at 100 µM: 87%
RIPK2; read-out: residual kinase activity, RIPK2
  remaining activity at 100 µM: 64%
PKD1; read-out: residual kinase activity, PKD1
  remaining activity at 100 µM: 66%
PLK1; read-out: residual kinase activity, PLK1
  remaining activity at 100 µM: 78%

## O=C(Nc1nc2cc(O)ccc2s1)c1cccnc1 [Compound 03-33]
PKCa
  residual kinase activity, PKCa: 105
MKK2
  residual kinase activity, MKK2: 85
p38b MAPK
  residual kinase activity, p38b MAPK: 87
PAK4
  residual kinase activity, PAK4: 92
CK2
  residual kinase activity, CK2: 88
PKCγ
  residual kinase activity, PKCγ: 103
TBK1
  residual kinase activity, TBK1: 97
EPH-A2
  residual kinase activity, EPH-A2: 108
p38g MAPK
  residual kinase activity, p38g MAPK: 85
PRK2
  residual kinase activity, PRK2: 85
BTK
  residual kinase activity, BTK: 110
CAMKKb
  residual kinase activity, CAMKKb: 69
SRPK1
  residual kinase activity, SRPK1: 58
MKK1
  residual kinase activity, MKK1: 89
RIPK2
  residual kinase activity, RIPK2: 20
PKD1
  residual kinase activity, PKD1: 71
PLK1
  residual kinase activity, PLK1: 80
